According to patent US20220356174A1, “PYRIDIN-2-ONE COMPOUNDS USEFUL AS SMARCA2 ANTAGONISTS” (Epizyme, Inc., priority 2018, published 2022):
pIC50: −log10 of the molar value. Like-named read-outs stand apart in the source and are kept apart here.

Legend:
[1] = molecular target: T1, FL-SMARCA2 (full-length human SMARCA2 isoform 1) (Homo sapiens, UniProt P51531); test: SMARCA2 ATPase activity assay (ADP-Glo, chicken mononucleosome substrate); assay type: biochemical; conditions: ATP 250 uM
T1 construct: FLAG tag (YKDDDDK) (C); made in house; host or cells: Sf21 insect cells (baculovirus, pFastBacI)
From the text: Molecular Biology: Full-length human SMARCA2 isoform 1 (P51531) transcript clone was amplified from a cDNA library incorporating an N-terminal HIS tag ([…]) fused directly to Ser2 of SMARCA2 and a C-FLAG tag (YKDDDDK) fused directly to Glu1590 of SMARCA2. The amplified gene was subcloned into pFastBacI (Life Technologies).
Protein Expression: Recombinant baculovirus were generated and protein over-expression was accomplished by infecting exponentially growing Sf21 insect cell culture at 1.24×10^6 cell/ml with an MOI of 0.1. Infections were carried out for 76 hours, harvested by centrifugation, and stored at −80° C. for purification.
Expressed full-length SMARCA2 was purified from cell paste by FLAG affinity chromatography followed by anion exchange chromatography. The protein was dialyzed into a storage buffer containing 25 mM HEPES, 300 mM KCl, 10% Glycerol, pH 7.9, 1 mM TCEP and 0.01% Tween-20. The purity of the protein was measured as 74% using micro-capillary based gel electrophoresis.

FL-SMARCA4 = FL-SMARCA4 (Homo sapiens, UniProt P51532); test: SMARCA4 ATPase activity assay (ADP-Glo, chicken mononucleosome substrate)
[2] = Table 3b.1, SMARCA2 5 nM, mononucleosome 10 nM
[3] = FL-SMARCA4 IC50, Table 3b.2, SMARCA4 5 nM, ATP 250 uM, mononucleosome 10 nM
[4] = Table 3c.1, ATPase assay, enzyme 5 nM, chicken mononucleosome 10 nM, 30 min preincubation
[5] = FL-SMARCA4 IC>50, Table 3c.2, ATPase assay, enzyme 5 nM, ATP 250 uM, chicken mononucleosome 10 nM, 30 min preincubation
[6] = Table 3.1, ATPase assay, enzyme 5 nM, chicken mononucleosome 10 nM, 30 min preincubation
[7] = FL-SMARCA4 IC50, Table 3.2, ATPase assay, enzyme 5 nM, ATP 250 uM, chicken mononucleosome 10 nM, 30 min preincubation
[8] = Table 3d.1, ATPase assay, enzyme 5 nM, chicken mononucleosome 10 nM, 30 min preincubation, read-out: FL-SMARCA2 IC>50
[9] = Table 3a.1, SMARCA2 5 nM, mononucleosome 10 nM
[10] = FL-SMARCA4 IC50, Table 3a.2, SMARCA4 5 nM, ATP 250 uM, mononucleosome 10 nM

T1 sequence (P51531 with tags, fused parts or gaps): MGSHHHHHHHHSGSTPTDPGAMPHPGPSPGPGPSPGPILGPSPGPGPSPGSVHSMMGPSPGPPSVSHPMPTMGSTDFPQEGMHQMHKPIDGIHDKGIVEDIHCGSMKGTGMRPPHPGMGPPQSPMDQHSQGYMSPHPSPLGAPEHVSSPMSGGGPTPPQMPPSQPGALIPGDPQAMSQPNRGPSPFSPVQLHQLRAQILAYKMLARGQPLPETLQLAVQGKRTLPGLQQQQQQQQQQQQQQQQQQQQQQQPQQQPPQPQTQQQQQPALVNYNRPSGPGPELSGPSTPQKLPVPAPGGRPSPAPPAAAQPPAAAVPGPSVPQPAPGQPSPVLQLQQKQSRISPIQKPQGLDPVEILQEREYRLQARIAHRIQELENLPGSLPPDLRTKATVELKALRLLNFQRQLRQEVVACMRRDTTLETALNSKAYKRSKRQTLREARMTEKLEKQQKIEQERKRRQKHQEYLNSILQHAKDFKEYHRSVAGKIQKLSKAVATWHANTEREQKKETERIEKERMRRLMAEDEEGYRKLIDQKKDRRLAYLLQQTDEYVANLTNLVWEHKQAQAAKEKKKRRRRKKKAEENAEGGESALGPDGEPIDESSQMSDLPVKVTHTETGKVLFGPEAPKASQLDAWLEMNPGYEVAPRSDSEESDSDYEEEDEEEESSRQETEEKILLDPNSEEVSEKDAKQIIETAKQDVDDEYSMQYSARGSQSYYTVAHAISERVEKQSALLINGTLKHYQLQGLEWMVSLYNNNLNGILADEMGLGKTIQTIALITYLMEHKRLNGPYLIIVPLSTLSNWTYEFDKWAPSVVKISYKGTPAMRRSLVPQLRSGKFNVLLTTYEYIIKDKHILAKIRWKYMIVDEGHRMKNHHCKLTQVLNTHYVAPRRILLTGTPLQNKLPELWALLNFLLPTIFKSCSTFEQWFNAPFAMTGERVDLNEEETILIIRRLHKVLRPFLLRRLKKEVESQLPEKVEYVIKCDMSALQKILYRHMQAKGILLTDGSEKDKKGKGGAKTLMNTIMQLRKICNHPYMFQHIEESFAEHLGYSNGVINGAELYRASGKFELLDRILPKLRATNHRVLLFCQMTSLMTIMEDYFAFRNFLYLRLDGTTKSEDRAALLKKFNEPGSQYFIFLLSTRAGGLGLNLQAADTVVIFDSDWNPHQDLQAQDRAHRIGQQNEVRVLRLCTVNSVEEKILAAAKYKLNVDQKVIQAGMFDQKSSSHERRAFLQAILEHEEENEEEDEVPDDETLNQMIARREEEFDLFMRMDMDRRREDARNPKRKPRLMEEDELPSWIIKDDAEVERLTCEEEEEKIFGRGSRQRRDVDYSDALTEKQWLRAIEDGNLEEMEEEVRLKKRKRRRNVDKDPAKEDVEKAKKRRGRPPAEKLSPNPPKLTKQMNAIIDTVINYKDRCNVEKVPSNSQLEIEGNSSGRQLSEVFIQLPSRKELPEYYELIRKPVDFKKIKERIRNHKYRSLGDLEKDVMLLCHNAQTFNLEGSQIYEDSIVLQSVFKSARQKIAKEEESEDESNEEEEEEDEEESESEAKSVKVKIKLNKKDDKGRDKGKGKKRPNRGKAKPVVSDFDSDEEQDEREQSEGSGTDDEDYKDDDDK
Chain of FL-SMARCA4 (P51532 whole entry): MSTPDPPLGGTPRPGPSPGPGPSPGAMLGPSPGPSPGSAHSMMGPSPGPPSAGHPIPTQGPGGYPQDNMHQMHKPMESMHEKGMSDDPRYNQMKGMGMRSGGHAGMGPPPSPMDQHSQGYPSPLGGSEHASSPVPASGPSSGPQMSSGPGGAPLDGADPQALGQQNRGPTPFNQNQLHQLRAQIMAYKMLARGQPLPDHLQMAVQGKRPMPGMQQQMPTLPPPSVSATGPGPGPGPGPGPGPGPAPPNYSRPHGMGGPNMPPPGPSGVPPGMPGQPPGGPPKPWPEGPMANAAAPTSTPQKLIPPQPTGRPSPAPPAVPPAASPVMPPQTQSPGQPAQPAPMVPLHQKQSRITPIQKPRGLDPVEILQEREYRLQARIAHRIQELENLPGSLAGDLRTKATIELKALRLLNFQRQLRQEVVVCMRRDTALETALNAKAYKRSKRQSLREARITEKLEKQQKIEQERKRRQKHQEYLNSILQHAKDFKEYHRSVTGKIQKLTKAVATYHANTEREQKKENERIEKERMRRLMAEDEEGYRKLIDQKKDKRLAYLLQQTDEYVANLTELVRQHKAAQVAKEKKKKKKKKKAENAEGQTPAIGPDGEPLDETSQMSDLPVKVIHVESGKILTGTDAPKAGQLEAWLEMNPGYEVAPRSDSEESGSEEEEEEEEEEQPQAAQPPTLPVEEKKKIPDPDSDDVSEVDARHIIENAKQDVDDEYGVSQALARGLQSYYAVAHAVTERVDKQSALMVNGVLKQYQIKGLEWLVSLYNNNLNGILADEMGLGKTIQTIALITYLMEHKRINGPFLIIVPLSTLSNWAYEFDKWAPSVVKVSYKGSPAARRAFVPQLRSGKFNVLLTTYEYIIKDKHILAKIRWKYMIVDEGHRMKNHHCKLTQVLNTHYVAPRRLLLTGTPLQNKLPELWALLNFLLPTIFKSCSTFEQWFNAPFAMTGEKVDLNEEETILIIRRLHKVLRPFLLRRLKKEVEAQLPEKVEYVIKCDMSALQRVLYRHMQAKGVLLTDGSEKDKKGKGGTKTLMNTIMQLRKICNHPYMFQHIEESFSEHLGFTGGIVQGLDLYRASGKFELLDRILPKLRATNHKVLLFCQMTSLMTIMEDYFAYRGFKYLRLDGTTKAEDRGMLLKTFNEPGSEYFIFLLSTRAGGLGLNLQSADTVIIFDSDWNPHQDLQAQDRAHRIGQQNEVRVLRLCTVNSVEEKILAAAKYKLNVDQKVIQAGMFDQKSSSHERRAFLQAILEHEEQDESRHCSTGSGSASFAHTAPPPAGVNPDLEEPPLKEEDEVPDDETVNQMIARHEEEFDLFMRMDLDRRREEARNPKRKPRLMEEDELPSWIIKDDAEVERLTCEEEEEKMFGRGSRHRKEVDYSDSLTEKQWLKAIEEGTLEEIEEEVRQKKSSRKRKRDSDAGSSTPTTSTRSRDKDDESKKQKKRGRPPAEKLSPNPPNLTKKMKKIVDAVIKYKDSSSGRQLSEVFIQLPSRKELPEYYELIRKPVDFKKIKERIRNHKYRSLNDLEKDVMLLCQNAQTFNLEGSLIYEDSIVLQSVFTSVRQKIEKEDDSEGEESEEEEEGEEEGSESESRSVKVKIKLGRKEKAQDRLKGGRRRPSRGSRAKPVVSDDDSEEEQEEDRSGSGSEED

In the case of `N#Cc1cc(C(=O)Nc2cc(F)c(=O)n(CCF)c2)ccc1Cl` [Compound 18b], the pIC50 [1, 2] was 6.04 and the pIC50 (FL-SMARCA4; [3]) was 5.27.

In the case of `O=C(Nc1cc(-c2cnco2)c(=O)n(CC(F)F)c1)c1sc(C(F)(F)F)cc1Cl` [Compound 18c], the pIC50 [1, 4] was under 4.30 and the pIC50 (FL-SMARCA4; [5]) was under 4.30.

`CCn1cc(NC(=O)c2ccc(Br)n2C)ccc1=O` [Compound 19] gave a pIC50 [1, 6] of under 4.30 and a pIC50 (FL-SMARCA4; [7]) of under 4.30.

`N#Cc1ccc(C(=O)Nc2cc(F)c(=O)n(CCF)c2)cc1Cl` [Compound 19b] gave a pIC50 [1, 2] of 5.69 and a pIC50 (FL-SMARCA4; [3]) of 4.90.

Compound `Cn1ccc(-c2cc(NC(=O)c3sc(C(F)(F)F)cc3Cl)cn(CC(F)F)c2=O)n1` [Compound 19c] has a pIC50 [1, 4] of under 4.30 and a pIC50 (FL-SMARCA4; [5]) of under 4.30.

For `CCn1nc(NC(=O)c2cc(Cl)c(Cl)s2)ccc1=O` [Compound 19d], the pIC50 [1, 8] was under 4.30 and the pIC50 (FL-SMARCA4; FL-SMARCA4 IC50) was under 4.30.

`CCn1cc(NC(=O)c2ccc(Cl)o2)ccc1=O` [Compound 20] gave a pIC50 [1, 6] of under 4.30 and a pIC50 (FL-SMARCA4; [7]) of under 4.30.

`CCn1cc(NC(=O)c2cn3ccccc3n2)ccc1=O` [Compound 20a] gave a pIC50 [1, 9] of under 4.30 and a pIC50 (FL-SMARCA4; [10]) of under 4.30.

With `N#Cc1ccc(C(=O)Nc2cc(F)c(=O)n(CCF)c2)cc1C#N` [Compound 20b] the pIC50 [1, 2] was 5.61 and the pIC50 (FL-SMARCA4; [3]) was 4.94.

Work on `O=C(Nc1cc(-c2cn[nH]c2)c(=O)n(CC(F)F)c1)c1sc(C(F)(F)F)cc1Cl` [Compound 20c] yielded a pIC50 [1, 4] of under 4.30 and a pIC50 (FL-SMARCA4; [5]) of under 4.30.

Compound `CCn1nc(NC(=O)c2cnc(Cl)s2)ccc1=O` [Compound 20d] has a pIC50 [1, 8] of 5.13 and a pIC50 (FL-SMARCA4; FL-SMARCA4 IC50) of 4.54.

`CCn1cc(NC(=O)c2cn3cccnc3n2)ccc1=O` [Compound 21a] showed a pIC50 [1, 9] of under 4.30 and a pIC50 (FL-SMARCA4; [10]) of under 4.30.

`CN(C)C(=O)c1ccc(C(=O)Nc2cc(F)c(=O)n(CCF)c2)cc1` [Compound 21b] gave a pIC50 [1, 2] of under 4.30 and a pIC50 (FL-SMARCA4; [3]) of under 4.30.

For `O=C(Nc1ccc(=O)n(CC(F)(F)F)n1)c1cc(Cl)c(Cl)s1` [Compound 21d], the pIC50 [1, 8] was 4.78 and the pIC50 (FL-SMARCA4; FL-SMARCA4 IC50) was under 4.30.

For `CCn1cc(NC(=O)c2c[nH]c3ccccc23)ccc1=O` [Compound 22a], the pIC50 [1, 9] was under 4.30 and the pIC50 (FL-SMARCA4; [10]) was under 4.30.

`CC(=O)Nc1ccc(C(=O)Nc2cc(F)c(=O)n(CCF)c2)cc1Cl` [Compound 22b] showed a pIC50 [1, 2] of under 4.30 and a pIC50 (FL-SMARCA4; [3]) of under 4.30.

In the case of `CCCn1nc(NC(=O)c2cc(Cl)c(Cl)s2)ccc1=O` [Compound 22d], the pIC50 [1, 8] was 5.20 and the pIC50 (FL-SMARCA4; FL-SMARCA4 IC50) was 4.54.

Work on `CCn1cc(NC(=O)c2cnc3ncccn23)ccc1=O` [Compound 23a] yielded a pIC50 [1, 9] of under 4.30 and a pIC50 (FL-SMARCA4; [10]) of under 4.30.

For `NS(=O)(=O)c1ccc(C(=O)Nc2cc(F)c(=O)n(CCF)c2)cc1Cl` [Compound 23b], the pIC50 [1, 2] was under 4.30 and the pIC50 (FL-SMARCA4; [3]) was under 4.30.

For `O=C(Nc1cc(F)c(=O)n(CC(F)F)c1)c1cc(C#Cc2ccncc2)cs1` [Compound 23c], the pIC50 [1, 4] was 6.76 and the pIC50 (FL-SMARCA4; [5]) was 6.66.

Work on `O=C(Nc1ccc(=O)n(CC(F)(F)F)n1)c1cnc(Cl)s1` [Compound 23d] yielded a pIC50 [1, 8] of 4.90 and a pIC50 (FL-SMARCA4; FL-SMARCA4 IC50) of 4.82.

`CCn1cc(NC(=O)c2c[nH]c3c(Cl)cccc23)ccc1=O` [Compound 24a] was tested, and the pIC50 [1, 9] was under 4.30 and the pIC50 (FL-SMARCA4; [10]) was under 4.30.

Compound `O=C(Nc1cc(F)c(=O)n(CC(F)F)c1)c1cc(CC(F)(F)F)c(Cl)s1` [Compound 24c] has a pIC50 [1, 4] of 4.95 and a pIC50 (FL-SMARCA4; [5]) of 4.41.

`CCn1cc(NC(=O)c2cc(Cl)c(Cl)s2)c(Cl)cc1=O` [Compound 24d] gave a pIC50 [1, 8] of 4.73 and a pIC50 (FL-SMARCA4; FL-SMARCA4 IC50) of under 4.30.

With `CCn1cc(NC(=O)c2cccc(Cl)n2)ccc1=O` [Compound 25a] the pIC50 [1, 9] was under 4.30 and the pIC50 (FL-SMARCA4; [10]) was under 4.30.

For `CCn1c(C)c(NC(=O)c2cc(Cl)c(Cl)s2)ccc1=O` [Compound 25d], the pIC50 [1, 8] was under 4.30 and the pIC50 (FL-SMARCA4; FL-SMARCA4 IC50) was under 4.30.

With `CCn1cc(NC(=O)c2ccc(F)s2)ccc1=O` [Compound 26] the pIC50 [1, 6] was 4.71 and the pIC50 (FL-SMARCA4; [7]) was under 4.30.

With `CCn1cc(NC(=O)c2ccc3ccccc3n2)ccc1=O` [Compound 26a] the pIC50 [1, 9] was under 4.30 and the pIC50 (FL-SMARCA4; [10]) was under 4.30.

`O=C(Nc1cc(C#CC(F)(F)F)c(=O)n(CC(F)F)c1)c1cc(F)c(Cl)s1` [Compound 26c] showed a pIC50 [1, 4] of 5.27 and a pIC50 (FL-SMARCA4; [5]) of 5.20.

With `CCn1cc(NC(=O)c2cc(Cl)c(Cl)s2)c(C)cc1=O` [Compound 26d] the pIC50 [1, 8] was under 4.30 and the pIC50 (FL-SMARCA4; FL-SMARCA4 IC50) was under 4.30.

`CCn1cc(NC(=O)c2cn(C)c3c(Cl)cccc23)ccc1=O` [Compound 27a] gave a pIC50 [1, 9] of under 4.30 and a pIC50 (FL-SMARCA4; [10]) of under 4.30.

For `Cn1cnc(-c2cc(NC(=O)c3sc(C(F)(F)F)cc3Cl)cn(CC(F)F)c2=O)c1` [Compound 27c], the pIC50 [1, 4] was under 4.30 and the pIC50 (FL-SMARCA4; [5]) was under 4.30.
